Test results published in patent EP2818472A1, “Imidazo[4,5-c]pyridine and pyrrolo[3,2-c]pyridine compounds as G-protein-coupled receptor kinase 5 (GRK5) modulators” (Max-Planck-Gesellschaft zur Förderung der Wissenschaften …, priority 2013, dated 2014).

These compounds were tested on beta-TC6 cells (assay: Insulin HTRF assay (relative activity Ar) in beta-TC6 cells). Details: Mus musculus, Beta-TC6, 4 h, insulin HTRF, supernatant of beta-TC6 cells, incubation with test compound at 37°C for 2, 3, 4h; read-out: Ar (relative activity).
Format: cell-based, mouse
Description: For further screening of compounds derived from compounds described above for their ability to regulate insulin release an insulin HTRF® (Homogeneous Time-Resolved Fluorescence; Cisbio International, France) was used. This assay is based on two antibodies against insulin binding to different epitopes of insulin. One of these antibodies is coupled to Europium (Ab-Eu-Cryptate) and the other one to the fluorophore XL665 (Ab-XL665). If the insulin is secreted into the supernatant of cell culture, both antibodies can bind to insulin and come therefore into close proximity, which allows upon excitation that energy transfer between (FRET) the long-life fluorescent donor Europium (cryptate) and the acceptors XL665. FRET increases proportionally with insulin concentration.
The automated assay protocol is as follows: • On day 1, 15k beta-TC6 cells per well were seeded for 24 or 48 h in 50 µL complete medium. On day 2 or respective on day 3, the medium is removed and cells are washed with 60 µL 1xPBS and 20 µL induction buffer is added using BioTek washer. Subsequently, 10 µL Sunitininb (5 -µM f.c.) or the test compound in induction buffer; 0.5% f.c. DMSO (CyBi-well) is transferred to the cells. The cells are then incubated at 37°C for 2, 3, 4h.
First 10 µL supernatant is transferred from the cell plates in HTRF plates (CyBi-well). 10 µL of 0, 1, 2, and 4 ng/ml insulin standard controls in assay medium is used as a control. To each well 10 µL of combined 1:25 Ab-XL665 (Acc) and 1:20 Ab-Eu-Cryptate (WellMate) are added and incubated for 120 min at RT in the dark. Finally HTRF is measured on ViewLux ultra high throughput microplate imager (PerkinElmer).
The evaluation software DataFactoty derives relative activities Ar according to the following equation: Ar = (V-R(0%control))/(R(100%control) -R0%control)) × 100 [formula]
The activity of the compounds was classified according to their Ar (relative activity) into the following ranges: […]

Row | Compound | Emax
1 | COc1ccc(Nc2cc3[nH]c(-c4cccc(N)c4)cc3cn2)cn1 [Compound 1, 2-(3-aminophenyl)-N-(6-methoxy-3-pyridyl)-1H-pyrrolo[3,2-c]pyridin-6-amine] | 50 to 100%
2 | Nc1cccc(-c2cc3cnc(Nc4cccnc4)cc3[nH]2)c1 [Compound 2, 2-(3-aminophenyl)-N-(3-pyridyl)-1H-pyrrolo[3,2-c]pyridin-6-amine] | 30 to 50%
3 | CN1CCN(c2cc3[nH]c(-c4cccc(C(F)(F)F)c4)cc3cn2)CC1 [Compound 4, 6-(4-methylpiperazin-1-yl)-2-[3-(trifluoromethyl)phenyl]-1H-pyrrolo[3,2-c]pyridine] | 30 to 50%
4 | CS(=O)(=O)Nc1cccc(Nc2cc3[nH]c(-c4cccc(C(F)(F)F)c4)cc3cn2)c1 [Compound 5, N-[3-[[2-[3-(trifluoromethyl)phenyl]-1H-pyrrolo[3,2-c]pyridin-6-yl]amino]phenyl]methanesulfonamide] | 0 to 30%
5 | COc1ccc(Nc2cc3[nH]c(-c4cccc(F)c4)cc3cn2)cc1OC [Compound 7, N-(3,4-dimethoxyphenyl)-2-(3-fluorophenyl)-1H-pyrrolo[3,2-c]pyridin-6-amine] | 50 to 100%
6 | COc1ccc(Nc2cc3[nH]c(-c4cccc(F)c4)cc3cn2)cn1 [Compound 8, 2-(3-fluorophenyl)-N-(6-methoxy-3-pyridyl)-1H-pyrrolo[3,2-c]pyridin-6-amine] | 30 to 50%
7 | Fc1cccc(-c2cc3cnc(Nc4ccc(F)c(Cl)c4)cc3[nH]2)c1 [Compound 9, N-(3-chloro-4-fluoro-phenyl)-2-(3-fluorophenyl)-1H-pyrrolo[3,2-c]pyridin-6-amine] | 0 to 30%
8 | Oc1cccc(Nc2cc3[nH]c(-c4cccc(F)c4)cc3cn2)c1 [Compound 10, 3-[[2-(3-fluorophenyl)-1H-pyrrolo[3,2-c]pyridin-6-yl]amino]phenol] | 50 to 100%
9 | COc1ccc(Nc2cc3[nH]c(-c4cccc(F)c4)cc3cn2)cc1O [Compound 11, 5-[[2-(3-fluorophenyl)-1H-pyrrolo[3,2-c]pyridin-6-yl]amino]-2-methoxy-phenol] | 30 to 50%
10 | Fc1cccc(-c2cc3cnc(N4CCOCC4)cc3[nH]2)c1 [Compound 12, 4-[2-(3-fluorophenyl)-1H-pyrrolo[3,2-c]pyridin-6-yl]morpholine] | > 100%
11 | CS(=O)(=O)Nc1cccc(Nc2cc3[nH]c(-c4cccc(F)c4)cc3cn2)c1 [Compound 13, N-[3-[[2-(3-fluorophenyl)-1H-pyrrolo[3,2-c]pyridin-6-yl]amino]phenyl]methanesulfonamide] | 50 to 100%
12 | CN(C)C(=O)c1ccc(Nc2cc3[nH]c(-c4cccc(F)c4)cc3cn2)cc1 [Compound 14, 4-[[2-(3-fluorophenyl)-1H-pyrrolo[3,2-c]pyridin-6-yl]amino]-N,N-dimethyl-benzamide] | 30 to 50%
13 | CC(=O)Nc1cccc(Nc2cc3[nH]c(-c4cccc(F)c4)cc3cn2)c1 [Compound 15, N-[3-[[2-(3-fluorophenyl)-1H-pyrrolo[3,2-c]pyridin-6-yl]amino]phenyl]acetamide] | 30 to 50%
14 | CS(=O)(=O)c1ccc(Nc2cc3[nH]c(-c4cccc(F)c4)cc3cn2)cc1 [Compound 16, 2-(3-fluorophenyl)-N-(4-methylsulfonylphenyl)-1H-pyrrolo[3,2-c]pyridin-6-amine] | 30 to 50%
15 | Cn1c(-c2cccc(F)c2)cc2cnc(Nc3ccc(O)cc3)cc21 [Compound 17, 4-[[2-(3-fluorophenyl)-1-methyl-pyrrolo[3,2-c]pyridin-6-yl]amino]phenol] | 50 to 100%
16 | COc1cc(Nc2cc3[nH]c(-c4ccc(C(=O)N(C)C)cc4)cc3cn2)cc(OC)c1OC [Compound 18, N,N-dimethyl-4-[6-(3,4,5-trimethoxyanilino)-1H-pyrrolo[3,2-c]pyridin-2-yl]benzamide] | 50 to 100%
17 | COc1cccc(Nc2cc3[nH]c(-c4ccc(C(=O)N(C)C)cc4)cc3cn2)c1 [Compound 19, 4-[6-(3-methoxyanilino)-1H-pyrrolo[3,2-c]pyridin-2-yl]-N,N-dimethyl-benzamide] | 50 to 100%
18 | COc1ccc(Nc2cc3[nH]c(-c4ccc(C(=O)N(C)C)cc4)cc3cn2)c(OC)c1 [Compound 20, 4-[6-(2,4-dimethoxyanilino)-1H-pyrrolo[3,2-c]pyridin-2-yl]-N,N-dimethyl-benzamide] | 50 to 100%

Row | Compound | Emax
19 | COc1ccc(Nc2cc3[nH]c(-c4ccc(C(=O)N(C)C)cc4)cc3cn2)cc1OC [Compound 21, 4-[6-(3,4-dimethoxyanilino)-1H-pyrrolo[3,2-c]pyridin-2-yl]-N,N-dimethyl-benzamide] | 50 to 100%
20 | CN(C)C(=O)c1ccc(-c2cc3cnc(Nc4cccnc4)cc3[nH]2)cc1 [Compound 22, N,N-dimethyl-4-[6-(3-pyridylamino)-1H-pyrrolo[3,2-c]pyridin-2-yl]benzamide] | > 100%
21 | CN(C)C(=O)c1ccc(-c2cc3cnc(Nc4cccc(Cl)c4)cc3[nH]2)cc1 [Compound 23, 4-[6-(3-chloroanilino)-1H-pyrrolo[3,2-c]pyridin-2-yl]-N,N-dimethyl-benzamide] | 30 to 50%
22 | CN(C)C(=O)c1ccc(-c2cc3cnc(Nc4ccccc4)cc3[nH]2)cc1 [Compound 24, 4-(6-anilino-1 H-pyrrolo[3,2-c]pyridin-2-yl)-N,N-dimethyl-benzamide] | 50 to 100%
23 | CN(C)C(=O)c1ccc(-c2cc3cnc(Nc4ccc(Oc5ccccc5)cc4)cc3[nH]2)cc1 [Compound 25, N,N-dimethyl-4-[6-(4-phenoxyanilino)-1H-pyrrolo[3,2-c]pyridin-2-yl]benzamide] | 0 to 30%
24 | CN1CCN(c2ccc(Nc3cc4[nH]c(-c5ccc(C(=O)N(C)C)cc5)cc4cn3)cc2)CC1 [Compound 26, N,N-dimethyl-4-[6-[4-(4-methylpiperazin-1-yl)anilino]-1H-pyrrolo[3,2-c]pyridin-2-yl]benzamide] | 50 to 100%
25 | CN(C)C(=O)c1ccc(-c2cc3cnc(Nc4cccc(N(C)C)c4)cc3[nH]2)cc1 [Compound 27, 4-[6-[3-(dimethylamino)anilino]-1H-pyrrolo[3,2-c]pyridin-2-yl]-N,N-dimethyl-benzamide] | 50 to 100%
26 | Cc1cccc(Nc2cc3[nH]c(-c4ccc(C(=O)N(C)C)cc4)cc3cn2)c1 [Compound 28, N,N-dimethyl-4-[6-(3-methylanilino)-1H-pyrrolo[3,2-c]pyridin-2-yl]benzamide] | 50 to 100%
27 | COC(=O)c1ccc(Nc2cc3[nH]c(-c4ccc(C(=O)N(C)C)cc4)cc3cn2)cc1 [Compound 29, methyl 4-[[2-[4-(dimethylcarbamoyl)phenyl]-1H-pyrrolo[3,2-c]pyridin-6-yl]amino]benzoate] | 30 to 50%
28 | CN(C)C(=O)c1ccc(-c2cc3cnc(Nc4cccc(S(C)(=O)=O)c4)cc3[nH]2)cc1 [Compound 30, N,N-dimethyl-4-[6-(3-methylsulfonylanilino)-1H-pyrrolo[3,2-c]pyridin-2-yl]benzamide] | 50 to 100%
29 | CN(C)C(=O)c1ccc(-c2cc3cnc(Nc4cccc(O)c4)cc3[nH]2)cc1 [Compound 31, 4-[6-(3-hydroxyanilino)-1H-pyrrolo[3,2-c]pyridin-2-yl]-N,N-dimethyl-benzamide] | > 100%
30 | CN(C)C(=O)c1ccc(-c2cc3cnc(Nc4ccc(C(F)(F)F)cc4)cc3[nH]2)cc1 [Compound 32, N,N-dimethyl-4-[6-[4-(trifluoromethyl)anilino]-1H-pyrrolo[3,2-c]pyridin-2-yl]benzamide] | 30 to 50%
31 | CN(C)C(=O)c1ccc(-c2cc3cnc(Nc4cccc(OC(F)(F)F)c4)cc3[nH]2)cc1 [Compound 33, N,N-dimethyl-4-[6-[3-(trifluoromethoxy)anilino]-1H-pyrrolo[3,2-c]pyridin-2-yl]benzamide] | 30 to 50%
32 | CN(C)C(=O)c1ccc(-c2cc3cnc(Nc4ccc(OC(F)(F)F)cc4)cc3[nH]2)cc1 [Compound 34, N,N-dimethyl-4-[6-[4-(trifluoromethoxy)anilino]-1H-pyrrolo[3,2-c]pyridin-2-yl]benzamide] | 0 to 30%
33 | CN(C)C(=O)c1ccc(-c2cc3cnc(Nc4cccc(Oc5ccccc5)c4)cc3[nH]2)cc1 [Compound 35, N,N-dimethyl-4-[6-(3-phenoxyanilino)-1H-pyrrolo[3,2-c]pyridin-2-yl]benzamide] | 0 to 30%
34 | CC(C)c1cccc(Nc2cc3[nH]c(-c4ccc(C(=O)N(C)C)cc4)cc3cn2)c1 [Compound 36, 4-[6-(3-isopropylanilino)-1H-pyrrolo[3,2-c]pyridin-2-yl]-N,N-dimethyl-benzamide] | 0 to 30%
35 | CN(C)C(=O)c1ccc(-c2cc3cnc(Nc4ccccc4Cl)cc3[nH]2)cc1 [Compound 37, 4-[6-(2-chloroanilino)-1H-pyrrolo[3,2-c]pyridin-2-yl]-N,N-dimethyl-benzamide] | 30 to 50%
36 | CC(C)c1ccc(Nc2cc3[nH]c(-c4ccc(C(=O)N(C)C)cc4)cc3cn2)cc1 [Compound 38, 4-[6-(4-isopropylanilino)-1H-pyrrolo[3,2-c]pyridin-2-yl]-N,N-dimethyl-benzamide] | 0 to 30%
